Molecular target: soluble human BACE1 catalytic domain (Homo sapiens (Human), UniProt P56817)
Experiment: BACE1 HTRF FRET Assay
Details: read-out: BACE1 Ki; Ki calculated from IC50 using the Cheng-Prusoff equation

Sequence of soluble human BACE1 catalytic domain (P56817 75-416): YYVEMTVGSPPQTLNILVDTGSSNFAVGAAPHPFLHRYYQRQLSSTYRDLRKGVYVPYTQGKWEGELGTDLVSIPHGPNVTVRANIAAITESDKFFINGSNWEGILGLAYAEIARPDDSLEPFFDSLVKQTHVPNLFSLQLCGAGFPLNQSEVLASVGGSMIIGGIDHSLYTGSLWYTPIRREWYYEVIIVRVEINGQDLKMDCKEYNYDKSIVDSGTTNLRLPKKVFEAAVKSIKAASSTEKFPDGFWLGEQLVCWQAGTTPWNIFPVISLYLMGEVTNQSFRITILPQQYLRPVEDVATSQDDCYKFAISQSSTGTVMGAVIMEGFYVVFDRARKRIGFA

| Compound | Ki |
| --- | --- |
| C[C@]1(CC2CC2)C(=N)N[C@](C)(c2cc(NC(=O)c3ccc(C(F)(F)F)cn3)ccc2F)CS1(=O)=O [Example 9dl-a] | 4.4 nM |
| C=CC[C@@]1(C)C(=N)N[C@](C)(c2cc(NC(=O)c3cnc(OC)cn3)ccc2F)CS1(=O)=O [Example 9dm-a] | 4 nM |
| C[C@@]1(c2cc(NC(=O)c3ccc(F)cn3)ccc2F)CS(=O)(=O)[C@@](C)(c2ccccc2F)C(=N)N1 [Example 9dn-a] | 21.4 nM |
| C[C@]1(CC(F)(F)F)C(=N)N[C@](C)(c2cc(NC(=O)c3ccc(F)cn3)ccc2F)CS1(=O)=O [Example 9dp-a] | 6.2 nM |
| COc1ccc(C(=O)Nc2ccc(F)c([C@]3(C)CS(=O)(=O)[C@@](C)(CC(F)(F)F)C(=N)N3)c2)nc1 [Example 9dq-a] | 8.5 nM |
| C[C@@]1(c2cc(NC(=O)c3ccc(F)cn3)ccc2F)CS(=O)(=O)[C@@](C)(C2CCOCC2)C(=N)N1 [Example 9ds-a] | 3.5 nM |
| COc1ccc(C(=O)Nc2ccc(F)c([C@]3(C)CS(=O)(=O)[C@@](C)(C4CCOCC4)C(=N)N3)c2)nc1 [Example 9dt-a] | 3 nM |
| COc1cnc(C(=O)Nc2ccc(F)c([C@]3(C)CS(=O)(=O)[C@@](C)(C4CCOCC4)C(=N)N3)c2)cn1 [Example 9du-a] | 3.4 nM |
| C[C@@]1(c2cc(NC(=O)c3ccc(F)cn3)ccc2F)CS(=O)(=O)[C@@](C)(C2CCC2)C(=N)N1 [Example 9dv-a] | 7 nM |
| COc1cnc(C(=O)Nc2ccc(F)c([C@]3(C)CS(=O)(=O)[C@@](C)(C4CCC4)C(=N)N3)c2)cn1 [Example 9dy-a] | 7.5 nM |
| C[C@@]1(c2cc(NC(=O)c3ccc(C(F)(F)F)cn3)ccc2F)CS(=O)(=O)[C@@](C)(C2CCC2)C(=N)N1 [Example 9dz-a] | 3.4 nM |
| CC1(C)C(=N)N[C@](C)(c2cc(NC(=O)c3cnc(C(F)(F)F)cn3)ccc2F)CS1(=O)=O [Example 9e] | 0.7 nM |
| CC(C)[C@@]1(C)C(=N)N[C@](C)(c2cc(NC(=O)c3ccc(F)cn3)ccc2F)CS1(=O)=O [Example 9ea-a] | 31.6 nM |
| COc1ccc(C(=O)Nc2ccc(F)c([C@]3(C)CS(=O)(=O)[C@@](C)(C(C)C)C(=N)N3)c2)nc1 [Example 9eb-a] | 16.5 nM |
| C[C@@]1(c2cc(NC(=O)c3ccc(F)cn3)ccc2F)CS(=O)(=O)[C@@](C)(c2cc(C(F)(F)F)ccn2)C(=N)N1 [Example 9ed-a] | 1.6 nM |
| C[C@@]1(c2cc(NC(=O)c3ccc(F)cn3)ccc2F)CS(=O)(=O)[C@@](C)(c2cc(C(F)(F)F)ccn2)C(=N)N1 [Example 9ed-b] | 15.1 nM |
| CC1(C)C(=N)N[C@](C)(c2cc(NC(=O)c3ccc(F)cc3F)ccc2F)CS1(=O)=O [Example 9f] | 11 nM |
| Cc1nc(C(=O)Nc2ccc(F)c([C@]3(C)CS(=O)(=O)C(C)(C)C(=N)N3)c2)no1 [Example 9g] | 1.9 nM |
| Cc1noc(C(=O)Nc2ccc(F)c([C@]3(C)CS(=O)(=O)C(C)(C)C(=N)N3)c2)n1 [Example 9h] | 2.7 nM |
| CC1(C)C(=N)N[C@](C)(c2cc(NC(=O)c3ccn(C(F)F)n3)ccc2F)CS1(=O)=O [Example 9j] | 0.6 nM |
| CC1(C)C(=N)N[C@](C)(c2cc(NC(=O)c3ccc(F)cn3)cc(F)c2F)CS1(=O)=O [Example 9k] | 9.7 nM |
| CC1(C)C(=N)N[C@](C)(c2cc(NC(=O)c3ccc(Cl)cn3)cc(F)c2F)CS1(=O)=O [Example 9l] | 4.3 nM |
| COc1ccc(C(=O)Nc2cc(F)c(F)c([C@]3(C)CS(=O)(=O)C(C)(C)C(=N)N3)c2)nc1 [Example 9m] | 7.6 nM |
| COc1cnc(C(=O)Nc2cc(F)c(F)c([C@]3(C)CS(=O)(=O)C(C)(C)C(=N)N3)c2)c(F)c1 [Example 9o] | 3 nM |
| CC1(C)C(=N)N[C@](C)(c2cc(NC(=O)c3cnc(C(F)F)cn3)ccc2F)CS1(=O)=O [Example 9q] | 3.6 nM |
| CC1(C)C(=N)N[C@](C)(c2cc(NC(=O)c3cnc(C(F)F)cn3)cc(F)c2F)CS1(=O)=O [Example 9r] | 5.3 nM |
| CC1(C)C(=N)N[C@](C)(c2cc(NC(=O)c3ccc(F)cn3)cc(Cl)c2F)CS1(=O)=O [Example 9s] | 6.3 nM |

Source: patent US9499502B2, “5-substituted iminothiazines and their mono- and dioxides as BACE inhibitors, compositions, and their use” (Merck Sharp & Dohme Corp., priority 2011, dated 2016)
